Laboratory results from patent US6852673B2, “Herbicidal pyridine compounds” (BASF Aktiengesellschaft, priority 1998, dated 2005).

Assays:
Type in all cases: in vivo
[1] = test system: Glycine max (GLXMA); experiment: Pre-emergence herbicidal evaluation, soyabeans
From the text: (§1) The pre-emergence herbicidal activity of the compounds of the present invention is exemplified by the following test in which the seeds of a variety of monocotyledonous and dicotyledonous plants are seperately mixed with potting soil and planted on top of approximately one inch of soil in separate pots. After planting, the pots are sprayed with the selected aqueous acetone solution containing test compound in sufficient quantity to provide the equivalent of about 0.0125 to 0.4 kg per hectare of test compound per pot. The treated pots are then placed on greenhouse benches, watered and cared for in accordance with conventional greenhouse procedures. From 2 to 4 weeks after treatment, the tests are terminated and each pot is examined and rated according to the rating system set forth below.

[2] = test system: Hordeum vulgare (HORVW); experiment: Pre-emergence herbicidal evaluation, winter barley
Method in brief: (§2)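 Seeds planted in potting soil, then pots sprayed pre-emergence with aqueous acetone solution of test compound at about 0.0125 to 0.4 kg/ha. Kept under standard greenhouse care; injury rated 2 to 4 weeks after treatment.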

[3] = test system: Oryza sativum (ORYSA); experiment: Pre-emergence herbicidal evaluation, rice
From the text: as §1

[4] = test system: Triticum aestivum (TRZAW); experiment: Pre-emergence herbicidal evaluation, winter wheat
Method in brief: as §2

[5] = test system: Abutilon theophrasti (ABUTH); experiment: Pre-emergence herbicidal evaluation, velvetleaf
Method in brief: as §2

[6] = test system: Ambrosia artemiisifolia (AMBEL); experiment: Pre-emergence herbicidal evaluation, ragweed
From the text: as §1

[7] = test system: Ipomoea hederacea (IPOHE); experiment: Pre-emergence herbicidal evaluation, morning glory
Method in brief: as §2

[8] = test system: Lamium purpureum (LAMPU); experiment: Pre-emergence herbicidal evaluation, purple deadnettle
Method in brief: as §2

[9] = test system: Matricaria inodora (MATIN); experiment: Pre-emergence herbicidal evaluation, mayweed
Method in brief: as §2

[10] = test system: Solanum nigrum (SOLNI); experiment: Pre-emergence herbicidal evaluation, black nightshade
Method in brief: as §2

[11] = test system: Stellaria media (STEME); experiment: Pre-emergence herbicidal evaluation, chickweed
Method in brief: as §2

[12] = test system: Alopecurus myosuroides (ALOMY); experiment: Pre-emergence herbicidal evaluation, black grass
Method in brief: as §2

SMILES: Cc1cc(OCC=C(Cl)Cl)nc(Oc2cc(C(F)(F)F)nn2C)c1 [Example 12]
- GLXMA rating ([1]; dose 0.013 kg/ha): 1 (1 - Trace effect)
- GLXMA rating ([1]; dose 0.025 kg/ha): 2 (2 - Slight effect)
- GLXMA rating ([1]; dose 0.1 kg/ha): 3 (3 - Moderate effect)
- GLXMA rating ([1]; dose 0.4 kg/ha): 4 (4 - Injury)
- HORVW rating ([2]; dose 0.013 kg/ha): 3 (3 - Moderate effect)
- HORVW rating ([2]; dose 0.025 kg/ha): 4 (4 - Injury)
- HORVW rating ([2]; dose 0.1 kg/ha): 5 (5 - Definite injury)
- HORVW rating ([2]; dose 0.4 kg/ha): 8 (8 - Approaching complete kill)
- ORYSA rating ([3]; dose 0.013 kg/ha): 0 (0 - No effect)
- ORYSA rating ([3]; dose 0.025 kg/ha): 0 (0 - No effect)
- ORYSA rating ([3]; dose 0.1 kg/ha): 1 (1 - Trace effect)
- ORYSA rating ([3]; dose 0.4 kg/ha): 3 (3 - Moderate effect)
- TRZAW rating ([4]; dose 0.013 kg/ha): 1 (1 - Trace effect)
- TRZAW rating ([4]; dose 0.025 kg/ha): 2 (2 - Slight effect)
- TRZAW rating ([4]; dose 0.1 kg/ha): 3 (3 - Moderate effect)
- TRZAW rating ([4]; dose 0.4 kg/ha): 6 (6 - Herbicidal effect)
- ABUTH rating ([5]; dose 0.013 kg/ha): 2 (2 - Slight effect)
- ABUTH rating ([5]; dose 0.025 kg/ha): 7 (7 - Good herbicidal effect)
- ABUTH rating ([5]; dose 0.1 kg/ha): 8 (8 - Approaching complete kill)
- ABUTH rating ([5]; dose 0.4 kg/ha): 9 (9 - Complete kill)
- AMBEL rating ([6]; dose 0.013 kg/ha): 8 (8 - Approaching complete kill)
- AMBEL rating ([6]; dose 0.025 kg/ha): 8 (8 - Approaching complete kill)
- AMBEL rating ([6]; dose 0.1 kg/ha): 9 (9 - Complete kill)
- AMBEL rating ([6]; dose 0.4 kg/ha): 9 (9 - Complete kill)
- IPOHE rating ([7]; dose 0.013 kg/ha): 2 (2 - Slight effect)
- IPOHE rating ([7]; dose 0.025 kg/ha): 3 (3 - Moderate effect)
- IPOHE rating ([7]; dose 0.1 kg/ha): 9 (9 - Complete kill)
- IPOHE rating ([7]; dose 0.4 kg/ha): 9 (9 - Complete kill)
- LAMPU rating ([8]; dose 0.013 kg/ha): 8 (8 - Approaching complete kill)
- LAMPU rating ([8]; dose 0.025 kg/ha): 9 (9 - Complete kill)
- LAMPU rating ([8]; dose 0.1 kg/ha): 9 (9 - Complete kill)
- LAMPU rating ([8]; dose 0.4 kg/ha): 9 (9 - Complete kill)
- MATIN rating ([9]; dose 0.013 kg/ha): 8 (8 - Approaching complete kill)
- MATIN rating ([9]; dose 0.025 kg/ha): 9 (9 - Complete kill)
- MATIN rating ([9]; dose 0.1 kg/ha): 9 (9 - Complete kill)
- MATIN rating ([9]; dose 0.4 kg/ha): 9 (9 - Complete kill)
- SOLNI rating ([10]; dose 0.013 kg/ha): 5 (5 - Definite injury)
- SOLNI rating ([10]; dose 0.025 kg/ha): 8 (8 - Approaching complete kill)
- SOLNI rating ([10]; dose 0.1 kg/ha): 8 (8 - Approaching complete kill)
- SOLNI rating ([10]; dose 0.4 kg/ha): 8 (8 - Approaching complete kill)
- STEME rating ([11]; dose 0.013 kg/ha): 6 (6 - Herbicidal effect)
- STEME rating ([11]; dose 0.025 kg/ha): 8 (8 - Approaching complete kill)
- STEME rating ([11]; dose 0.1 kg/ha): 9 (9 - Complete kill)
- STEME rating ([11]; dose 0.4 kg/ha): 9 (9 - Complete kill)
- ALOMY rating ([12]; dose 0.013 kg/ha): 3 (3 - Moderate effect)
- ALOMY rating ([12]; dose 0.025 kg/ha): 8 (8 - Approaching complete kill)
